Experimental data reported in patent US20260226034A1 (The Rockefeller University, priority 2023, published 2026).

These molecules were tested against NSP14 (Severe acute respiratory syndrome coronavirus 2, UniProt P0DTD1) (assay: NSP14 MTase inhibition assay at 37° C. (MTase-Glo SAH detection)). Conditions: 0.3 nM NSP14, 2.5 μM SAM, 2.5 μM GpppA RNA, 45 min at 37° C.; read-out: Nsp14 Mtase Inh. IC50.
Type: biochemical, SARS-CoV-2
Procedure: NSP14 MTase assay at 37° C. (0.3 nM NSP14 as final enzyme concentration)
The NSP14 MTase assay at 37° C. is carried out in 384-well flat bottom polystyrene microplates (Greiner, 781075). Per well, 10 μl of 1×NSP14 reaction buffer (50 mM Tris-HCl, pH 7.5, 6 mM KCl, 1.25 mM MgCl2, 1 mM DTT, and 0.01% Tween-20) are dispensed in columns 1-23 using a Thermo Multidrop Combi dispenser (Thermo Scientific). 0.1 μl of serially diluted compounds in DMSO are dispensed into columns 1-22 of the assay microplates with a Janus 384 MDT NanoHead (PerkinElmer). In wells of column 23, which serve as negative controls, no compounds are added.
The NSP14 reaction is started by adding 4 μl of a 4× substrate solution containing S-adenosyl methionine (SAM, 10 μM) and GpppA RNA (10 μM) prepared in 1×NSP14 reaction buffer. Any addition of reagents is followed by a 30 second centrifugation at 500×g to ensure that all liquid was collected at the bottom of the well. The final concentrations of NSP14, SAM, and GpppA RNA are 0.3 nM, 2.5 μM, and 2.5 μM, respectively. The final reaction volume is 16 μl. Plates are sealed and incubated for 45 min at 37° C.
For SAH detection, 1 μl 5× MTase-Glo™ Reagent (Promega) is added to each well, plates are mixed for 1-2 minutes and incubated at room temperature for 30 minutes. 5 μl of room-temperature MTase-Glo™ Detection Solution (Promega) is added to each well, plates are mixed for 1-2 minutes and incubated at room temperature for 30 minutes. Luminescence signals of each well are recorded in relative light units (RLUs) using a Biotek Synergy Neo plate reader (BioTek, Winooski, VT). The SAH production is normalized against the positive control (PK, column 24) and negative control (NK, column 23) as follows: normalized % inhibition=100×(RLUsample-RLUaverageNK)/(RLUaveragePK-RLUaverageNK).

| SMILES | IC50 [nM] |
| --- | --- |
| Cc1c(S(=O)(=O)c2ccc3[nH]ncc3c2)cc(C(=O)N[C@@H]2CCN(c3ccc(F)cc3C#N)C2)n1C [A.82] | 0.45 |
| Cc1c(S(=O)(=O)c2ccc3[nH]ncc3c2)cc(C(=O)N[C@@H]2CCN(c3ccccc3C#N)C2)n1C [A.83] | 0.84 |
| Cc1c(S(=O)(=O)c2ccc3[nH]ncc3c2)cc(C(=O)N[C@@H]2CCN(c3cccc(C#N)c3)C2)n1C [A.84] | < 0.15 |
| Cc1c(S(=O)(=O)c2ccc3[nH]ncc3c2)cc(C(=O)N[C@@H]2CCN(c3ccccc3OC(F)(F)F)C2)n1C [A.85] | 27 |
| Cc1c(S(=O)(=O)c2ccc3[nH]ncc3c2)cc(C(=O)N[C@@H]2CCN(c3cccc(C(F)F)c3)C2)n1C [A.86] | 2.5 |
| Cc1c(S(=O)(=O)c2ccc3[nH]ncc3c2)cc(C(=O)N[C@@H]2CCN(c3cccc(F)c3)C2)n1C [A.87] | 0.75 |
| COc1ccc(N2CC[C@@H](NC(=O)c3cc(S(=O)(=O)c4ccc5[nH]ncc5c4)c(C)n3C)C2)nn1 [A.88] | < 0.15 |
| Cc1c(S(=O)(=O)c2ccc3[nH]ncc3c2)cc(C(=O)N[C@H]2CN(c3ncc(F)cn3)C[C@H]2O)n1C [A.89] | 14 |
| Cc1c(S(=O)(=O)c2ccc3[nH]ncc3c2)cc(C(=O)N[C@@H]2CCN(c3ncc(F)cn3)C2)n1CCO [A.90] | < 0.15 |
| COCCn1c(C(=O)N[C@@H]2CCN(c3ncc(F)cn3)C2)cc(S(=O)(=O)c2ccc3[nH]ncc3c2)c1C [A.91] | 0.17 |
| Cc1c(S(=O)(=O)c2ccc3[nH]ncc3c2)cc(C(=O)N[C@@H]2CCN(c3ccnc(C(F)(F)F)n3)C2)n1C [A.92] | < 0.15 |
| Cc1c(S(=O)(=O)c2ccc3[nH]ncc3c2)cc(C(=O)N[C@@H]2CCN(c3ccncn3)C2)n1C [A.93] | 0.2 |
| Cc1c(S(=O)(=O)c2ccc3[nH]ncc3c2)cc(C(=O)N[C@@H]2CCN(c3cc(C(F)(F)F)ncn3)C2)n1C [A.94] | 0.15 |
| Cc1c(S(=O)(=O)c2ccc3[nH]ncc3c2)cc(C(=O)N[C@@H]2CCN(c3cnccc3C#N)C2)n1C [A.95] | < 0.15 |
| Cc1c(S(=O)(=O)c2ccc3[nH]ncc3c2)cc(C(=O)N[C@@H]2CCN(c3cc(F)cc(F)c3)C2)n1C [A.96] | 0.85 |
| Cc1c(S(=O)(=O)c2ccc3[nH]ncc3c2)cc(C(=O)N[C@H]2C[C@@H](Nc3ncc(F)cn3)C2)n1C [A.97] | 13 |
| Cc1c(S(=O)(=O)c2ccc3[nH]ncc3c2)cc(C(=O)N[C@H]2C[C@@H](N(C)c3ncc(F)cn3)C2)n1C [A.98] | 0.39 |
| Cc1c(S(=O)(=O)c2ccc3[nH]ncc3c2)cc(C(=O)N[C@@H]2CCN(c3cccnn3)C2)n1C [A.99] | 0.38 |
| Cc1c(S(=O)(=O)c2ccc3[nH]ncc3c2)cc(C(=O)N[C@@H]2CCN(c3cccc(C(F)(F)F)c3)C2)n1C [A.100] | 2.9 |
| Cc1c(S(=O)(=O)c2ccc3[nH]ncc3c2)cc(C(=O)N[C@@H]2CCN(Cc3ccc(C#N)cc3)C2)n1C [A.101] | 26 |

| SMILES | IC50 [nM] |
| --- | --- |
| Cc1c(S(=O)(=NCCO)c2ccc3[nH]ncc3c2)cc(C(=O)N[C@@H]2CCN(c3ncc(F)cn3)C2)n1C (some centres unmarked) [A.102] | 0.46 |
| Cc1c(S(=O)(=O)c2ccc3[nH]ncc3c2)cc(C(=O)N[C@@H]2CCN(c3ccccc3C(F)(F)F)C2)n1C [A.103] | 5.1 |
| Cc1c(S(=O)(=O)c2ccc3[nH]ncc3c2)cc(C(=O)N[C@@H]2CCN(Cc3ccc(F)cn3)C2)n1C [A.104] | 4.3 |
| Cc1c(S(=O)(=O)c2ccc3[nH]ncc3c2)cc(C(=O)N[C@@H]2CCN(Cc3ccc(C#N)cn3)C2)n1C [A.105] | 14 |
| Cc1c(S(=O)(=O)c2cc(Cl)c3[nH]ncc3c2)cc(C(=O)N[C@@H]2CCN(c3ccc(C#N)cn3)C2)n1C [A.106] | < 0.15 |
| Cc1c(S(=O)(=O)c2ccc3[nH]ncc3c2)cc(C(=O)N[C@@H]2CCN(c3ccnc(C(F)F)c3)C2)n1C [A.107] | 0.17 |
| Cc1c(S(=O)(=O)c2ccc3[nH]ncc3c2)cc(C(=O)N[C@@H]2CCN(c3ccc(C#N)c(C#N)c3)C2)n1C [A.108] | < 0.15 |
| Cc1c(S(=O)(=O)c2ccc3[nH]ncc3c2)cc(C(=O)N[C@@H]2CCN(c3cccc(C#N)c3C#N)C2)n1C [A.109] | < 0.15 |
| Cc1c(S(=O)(=O)c2ccc3[nH]ncc3c2)cc(C(=O)N[C@H]2CN(c3ccc(C#N)cn3)CC23CC3)n1C [A.110] | 0.7 |
| Cc1c(S(=O)(=O)c2ccc3[nH]ncc3c2)cc(C(=O)N[C@@H]2CCN(c3cnn(C)c(=O)c3)C2)n1C [A.111] | < 0.15 |
| Cc1c(S(=O)(=O)c2ccc3[nH]nc(F)c3c2)cc(C(=O)N[C@@H]2CCN(c3ccnnc3)C2)n1C [A.112] | 0.53 |
| COc1cnc(N2CC[C@@H](NC(=O)c3cc(S(=O)(=O)c4ccc5[nH]ncc5c4)c(C)n3C)C2)cn1 [A.113] | < 0.15 |
| Cc1c(S(=O)(=O)c2ccc3[nH]ncc3c2)cc(C(=O)N[C@@H]2CCN(c3cnnc(Cl)c3)C2)n1C [A.118] | < 0.15 |
| Cc1c(S(=O)(=O)c2cc(Cl)c3[nH]ncc3c2)cc(C(=O)N[C@@H]2CCN(c3ccnnc3)C2)n1C [A.119] | 0.37 |
| Cc1c(S(=O)(=O)c2ccc3[nH]ncc3c2)cc(C(=O)N[C@@H]2CCN(c3nccnc3C#N)C2)n1C [A.120] | 0.26 |
| Cc1c(S(=O)(=O)c2ccc3[nH]ncc3c2)cc(C(=O)N[C@@H]2CCN(c3ncncc3C#N)C2)n1C [A.121] | 0.3 |
| Cc1c(S(=O)(=O)c2ccc3[nH]ncc3c2)cc(C(=O)N[C@@H]2CCN(c3nccc(C(F)F)n3)C2)n1C [A.122] | 0.3 |
| Cc1c(S(=O)(=O)c2ccc3[nH]ncc3c2)cc(C(=O)N[C@@H]2CCN(c3ccc(C(F)(F)F)cc3)C2)n1C [A.123] | 8.6 |
| COc1ncc(N2CC[C@@H](NC(=O)c3cc(S(=O)(=O)c4ccc5[nH]ncc5c4)c(C)n3C)C2)cn1 [A.124] | 0.23 |

Same assay, conditions: 37° C., 0.3 nM NSP14, 2.5 μM SAM, 2.5 μM GpppA RNA; read-out: Nsp14 Mtase Inh. IC50

| SMILES | IC50 [nM] |
| --- | --- |
| Cc1c(S(=O)(=O)c2ccc3[nH]ncc3c2)cc(C(=O)NCc2cccc3ncn(C4CC4)c23)n1C [B.1] | 0.38 |
| Cc1c(S(=O)(=O)c2cccc(C#N)c2)cc(C(=O)NCc2c(F)ccc3cnn(C)c23)n1C [B.2] | 0.61 |
| Cc1c(S(=O)(=O)c2cccc(C#N)c2)cc(C(=O)NCc2cccc3ncn(C4CC4)c23)n1C [B.3] | 5.3 |
| Cc1c(S(=O)(=O)c2cccc(C#N)c2)cc(C(=O)NCc2cccc3ncn(C)c23)n1C [B.4] | 4.9 |
| Cc1c(S(=O)(=O)c2ccc3c(c2)CC(=O)N3)cc(C(=O)NCc2cccc3cnn(C)c23)n1C [B.5] | 8.7 |
| Cc1c(S(=O)(=O)c2ccc(C(F)(F)F)cc2)cc(C(=O)NCc2cccc3cnn(C)c23)n1C [B.6] | 35 |
| Cc1c(S(=O)(=O)c2ccc(C3CC3)cc2)cc(C(=O)NCc2cccc3cnn(C)c23)n1C [B.7] | 114 |
| Cc1c(S(=O)(=O)c2ccc3c(=O)[nH]cnc3c2)cc(C(=O)NCc2cccc3cnn(C)c23)n1C [B.8] | 71 |
| Cc1c(S(=O)(=O)c2cc(F)c3[nH]ncc3c2)cc(C(=O)NCc2cccc3cnn(C)c23)n1C [B.9] | 0.53 |
| Cc1c(S(=O)(=O)c2ccc3c(c2)CNC3)cc(C(=O)NCc2cccc3cnn(C)c23)n1C [B.10] | 113 |
| Cc1c(S(=O)(=O)c2ccc3[nH]ncc3c2)cc(C(=O)NCc2cccc3ccc(=O)n(C)c23)n1C [B.11] | 2.1 |
| Cc1c(S(=O)(=O)c2ccc3[nH]nc(F)c3c2)cc(C(=O)NCc2cccc3cnn(C)c23)n1C [B.12] | 0.63 |
| Cc1c(S(=O)(=O)c2ccc3[nH]ncc3c2)cc(C(=O)NCc2cccc3c2N(C)C(=O)C3)n1C [B.13] | 0.6 |
| Cc1c(S(=O)(=O)c2cccc(C#N)c2)cc(C(=O)NCc2cccc3cnn(C4CC4)c23)n1C [B.14] | 23.1 |
| Cc1c(S(=O)(=O)c2ccc3[nH]ncc3c2)cc(C(=O)NCc2cccc3c2N(C)C(=O)CC3)n1C [B.15] | 14 |
| Cc1c(S(=O)(=O)c2ccc3[nH]ncc3c2)cc(C(=O)NCc2c(F)ccc3cnn(C4CC4)c23)n1C [B.16] | 0.38 |
| Cc1c(S(=O)(=O)c2cc(F)c3ncccc3c2)cc(C(=O)NCc2cccc3cnn(C)c23)n1C [B.17] | 41.8 |
| Cc1c(S(=O)(=O)c2ccc3[nH]ncc3c2)cc(C(=O)NCc2c(F)ccc3ncn(C4CC4)c23)n1C [B.18] | < 0.15 |
| Cc1c(S(=O)(=O)c2ccc3[nH]ncc3c2)cc(C(=O)NCc2cccnc2N2CCC(F)(F)C2)n1C [B.20] | 0.75 |
| Cc1c(S(=O)(=O)c2ccc3[nH]ncc3c2)cc(C(=O)NCc2c[nH]c(=O)c3ccccc23)n1C [B.21] | 0.54 |
| Cc1c(S(=O)(=O)c2ccc3[nH]ncc3c2)cc(C(=O)NCc2c(F)cccc2F)n1C [B.22] | 0.23 |
| Cc1c(S(=O)(=O)c2ccc3[nH]ncc3c2)cc(C(=O)NCc2nccc3cnn(C)c23)n1C [B.24] | 0.62 |
| Cc1c(S(=O)(=O)c2ccc3[nH]ncc3c2)cc(C(=O)NCc2cccc3c2CCC(=O)N3C)n1C [B.25] | < 0.15 |
